Laboratory results as given in ChEMBL document CHEMBL1142926, “A new modification of anti-tubercular active molecules” (Bioorg Med Chem, 2007).
Converted amounts (≈) assume the structure as drawn.

Legend:
[1] = test system: Mycobacterium kansasii; assay: Antimycobacterial activity against Mycobacterium kansasii 235/80 after 7 days; type: functional; conditions: 168 h
[2] = test system: Mycobacterium tuberculosis; assay: Antimycobacterial activity against Mycobacterium tuberculosis H37Rv; type: functional, organism-based
[3] = test system: Mycobacterium kansasii; assay: Antimycobacterial activity against Mycobacterium kansasii 235/80 after 14 days; type: functional; conditions: 336 h
[4] = Lipophilicity, log K of the compound; type: physicochemical; conditions: octanol/water
[5] = test system: Mycobacterium avium; assay: Antimycobacterial activity against Mycobacterium avium 330/88 after 14 days; type: functional; conditions: 336 h
[6] = test system: Mycobacterium tuberculosis; assay: Antimycobacterial activity against Mycobacterium tuberculosis 331/88 after 21 days; type: functional; conditions: 504 h
[7] = test system: Mycobacterium kansasii; assay: Antimycobacterial activity against Mycobacterium kansasii 6509/96 after 21 days; type: functional; conditions: 504 h
[8] = test system: Mycobacterium tuberculosis; assay: Antimycobacterial activity against Mycobacterium tuberculosis H37Rv at 6.25 ug/mL; type: functional
[9] = test system: Mycobacterium tuberculosis; assay: Antimycobacterial activity against Mycobacterium tuberculosis 331/88 after 14 days; type: functional; conditions: 336 h
[10] = test system: Mycobacterium kansasii; assay: Antimycobacterial activity against Mycobacterium kansasii 6509/96 after 14 days; type: functional; conditions: 336 h
[11] = test system: Mycobacterium kansasii; assay: Antimycobacterial activity against Mycobacterium kansasii 235/80 after 21 days; type: functional; conditions: 504 h
[12] = test system: Mycobacterium avium; assay: Antimycobacterial activity against Mycobacterium avium 330/88 after 21 days; type: functional; conditions: 504 h
[13] = test system: Mycobacterium kansasii; assay: Antimycobacterial activity against Mycobacterium kansasii 6509/96 after 7 days; type: functional; conditions: 168 h
[14] = Stability after 7 days; type: physicochemical; conditions: read-out: Stability
[15] = Stability after 14 days; type: physicochemical; conditions: read-out: Stability
[16] = Stability after 21 days; type: physicochemical; conditions: read-out: Stability
[17] = Stability within 7 days; type: physicochemical; conditions: 168 h

Row | Compound | MIC [1] [µM] | MIC [2] [µg/mL] | MIC [3] [µM] | log K [4] | MIC [5] [µM] | MIC [6] [µM] | MIC [7] [µM] | inhibition at 6.25 µg/mL [8] [%] | MIC [9] [µM] | MIC [10] [µM] | MIC [11] [µM] | MIC [12] [µM] | MIC [13] [µM] | IC50 [2] [µg/mL] | remaining at 168 h [14] [%] | remaining at 336 h [15] [%] | remaining at 504 h [16] [%] | Activity [17]
1 | CCC(CO)N1CCN(C(CC)CO)C1OS(=O)(=O)c1ccc(C)cc1 (centres undefined) | 500 (≈ 193 µg/mL) | > 6.25 | 1000 (≈ 387 µg/mL) | 0.243 | 500 (≈ 193 µg/mL) | 500 (≈ 193 µg/mL) | 1000 (≈ 387 µg/mL) | 0 | 250 (≈ 96.6 µg/mL) | 500 (≈ 193 µg/mL) | 1000 (≈ 387 µg/mL) | 1000 (≈ 387 µg/mL) | 250 (≈ 96.6 µg/mL) | – | – | – | – | –
2 | CN(C)/C=N/C(=O)c1cnccn1 | – | > 6.25 | – | 0.1718 | – | – | – | 1 | – | – | – | – | – | – | – | – | – | –
3 | O=C(N/N=C/N1CCOCC1)c1ccncc1 | – | > 6.25 | – | 0.2653 | – | – | – | 74 | – | – | – | – | – | – | – | – | – | –
4 | O=C(N/N=C/NCc1ccccn1)c1ccncc1 | 1000 (≈ 255 µg/mL) | 6.25 (≈ 24.5 µM) | 1000 (≈ 255 µg/mL) | 0.3343 | 1000 (≈ 255 µg/mL) | 32 (≈ 8.17 µg/mL) | 125 (≈ 31.9 µg/mL) | 92 | 16 (≈ 4.08 µg/mL) | 125 (≈ 31.9 µg/mL) | 1000 (≈ 255 µg/mL) | > 1000 | 62.5 (≈ 16 µg/mL) | > 10 | – | – | – | –
5 | O=C(N/N=C/NCc1ccccc1)c1ccncc1 | 500 (≈ 127 µg/mL) | > 6.25 | 1000 (≈ 254 µg/mL) | 0.5426 | 1000 (≈ 254 µg/mL) | 65.5 (≈ 16.7 µg/mL) | 250 (≈ 63.6 µg/mL) | 93 | 32 (≈ 8.14 µg/mL) | 250 (≈ 63.6 µg/mL) | 1000 (≈ 254 µg/mL) | > 1000 | 125 (≈ 31.8 µg/mL) | > 10 | – | – | – | –
6 | O=C(N/N=C\N1CCN(c2cc3c(cc2F)c(=O)c(C(=O)O)cn3C2CC2)CC1)c1ccncc1 | 2 (≈ 0.957 µg/mL) | 3.13 (≈ 6.54 µM) | 4 (≈ 1.91 µg/mL) | 0.9159 | 125 (≈ 59.8 µg/mL) | 4 (≈ 1.91 µg/mL) | 8 (≈ 3.83 µg/mL) | 99 | 2 (≈ 0.957 µg/mL) | 4 (≈ 1.91 µg/mL) | 8 (≈ 3.83 µg/mL) | 250 (≈ 120 µg/mL) | 2 (≈ 0.957 µg/mL) | – | 30 | 10 | 3 | –
7 | O=C(N/N=C/NNC(=O)c1ccncc1)c1ccncc1 | – | 0.39 (≈ 1.37 µM) | – | 0.3027 | – | – | – | 96 | – | – | – | – | – | > 62.5 | 19 | 4 | 1 | –
8 | O=C(NN/C=N/C(=O)c1cnccn1)c1ccncc1 | 500 (≈ 135 µg/mL) | 0.1 (≈ 0.37 µM) | 1000 (≈ 270 µg/mL) | 0.3562 | 125 (≈ 33.8 µg/mL) | 8 (≈ 2.16 µg/mL) | 16 (≈ 4.32 µg/mL) | 94 | 4 (≈ 1.08 µg/mL) | 8 (≈ 2.16 µg/mL) | 1000 (≈ 270 µg/mL) | 125 (≈ 33.8 µg/mL) | 8 (≈ 2.16 µg/mL) | > 10 | – | – | – | Not Active
9 | CN(C)/C=N/NC(=O)c1ccncc1 | 250 (≈ 48.1 µg/mL) | > 6.25 | 500 (≈ 96.1 µg/mL) | 0.252 | 1000 (≈ 192 µg/mL) | 16 (≈ 3.08 µg/mL) | 500 (≈ 96.1 µg/mL) | 1 | 16 (≈ 3.08 µg/mL) | 250 (≈ 48.1 µg/mL) | 1000 (≈ 192 µg/mL) | > 1000 | 125 (≈ 24 µg/mL) | – | – | – | – | –
10 | O=C(N/N=C/Nc1ccc(C(=O)O)c(O)c1)c1ccncc1 | 500 (≈ 150 µg/mL) | 0.39 (≈ 1.3 µM) | 1000 (≈ 300 µg/mL) | 0.366 | 125 (≈ 37.5 µg/mL) | 8 (≈ 2.4 µg/mL) | 250 (≈ 75.1 µg/mL) | 96 | 4 (≈ 1.2 µg/mL) | 250 (≈ 75.1 µg/mL) | 1000 (≈ 300 µg/mL) | 125 (≈ 37.5 µg/mL) | 125 (≈ 37.5 µg/mL) | > 62.5 | – | – | – | Not Active
11 | O=C(/N=C/Nc1ccc(C(=O)O)c(O)c1)c1cnccn1 | 16 (≈ 4.58 µg/mL) | 3.13 (≈ 10.9 µM) | 32 (≈ 9.16 µg/mL) | 0.3695 | 32 (≈ 9.16 µg/mL) | 16 (≈ 4.58 µg/mL) | 32 (≈ 9.16 µg/mL) | 98 | 8 (≈ 2.29 µg/mL) | 16 (≈ 4.58 µg/mL) | 32 (≈ 9.16 µg/mL) | 62.5 (≈ 17.9 µg/mL) | 8 (≈ 2.29 µg/mL) | > 10 | 10 | 1 | 0.1 | –
12 | O=C(/N=C/N1CCN(c2cc3c(cc2F)c(=O)c(C(=O)O)cn3C2CC2)CC1)c1cnccn1 | 1 (≈ 0.464 µg/mL) | 0.78 (≈ 1.68 µM) | 2 (≈ 0.929 µg/mL) | 0.97 | 62.5 (≈ 29 µg/mL) | 4 (≈ 1.86 µg/mL) | 4 (≈ 1.86 µg/mL) | 100 | 2 (≈ 0.929 µg/mL) | 2 (≈ 0.929 µg/mL) | 4 (≈ 1.86 µg/mL) | 125 (≈ 58.1 µg/mL) | 2 (≈ 0.929 µg/mL) | > 10 | – | – | – | Not Active
13 | O=C(O)c1cn(C2CC2)c2cc(N3CCNCC3)c(F)cc2c1=O [CIPROFLOXACIN] | – | 2 (≈ 6.04 µM) | – | – | – | – | – | 98 | 16 (≈ 5.3 µg/mL) | – | – | – | – | > 10 | – | – | – | –
14 | NNC(=O)c1ccncc1 [ISONIAZID] | > 250 | 0.025 (≈ 0.182 µM) | > 250 | – | > 250 | 1 (≈ 0.137 µg/mL) | 4 (≈ 0.549 µg/mL) | – | 1 (≈ 0.137 µg/mL) | 4 (≈ 0.549 µg/mL) | > 250 | > 250 | 2 (≈ 0.274 µg/mL) | > 100 | – | – | – | –
15 | NC(=O)c1cnccn1 [PYRAZINAMIDE] | > 128 | 6 (≈ 48.7 µM) | > 128 | – | > 128 | 8 (≈ 0.985 µg/mL) | – | – | 8 (≈ 0.985 µg/mL) | – | > 128 | > 128 | – | – | – | – | – | –
